Key:
Format in all cases: physicochemical
[1] = Antibody reduction potential assay (Vacuum/GX); details: EDTA 9.5, 19, 38 mM or Cystine 4 and 8 mM
Method: Bioreactor samples (1 mL) were obtained daily and centrifuged at 3000-4000 RPM and the supernatant was frozen immediately at −80° C. On the day prior to the assay, the samples were removed from −80° C. storage, thawed, and placed in a vacuum chamber at room temperature overnight to induce reduction of the monoclonal antibody without the interference of oxygen. After the vacuum hold, the samples were analyzed for protein fragmentation under non-reducing conditions using a BioAnalyzer system (Agilent Technologies) or a LABCHIP® GXII system (PerkinElmer) to detect antibody fragments resulting from the breakage of the antibody's interchain disulfide bonds. […]
Samples were stored frozen until analyzed. […] After being denatured and the free thiols being capped by NEM, the samples were analyzed using a Perkin Elmer Labchip® GXII (Perkin Elmer, Waltham, Mass.) to perform size fractionation and quantification. Using the Labchip® GXII, the protein and fragments were detected by laser-induced fluorescence and translated into gel-like images (bands) and electropherograms (peaks).
Reduction potential, i.e. the potential of the molecule to be reduced under anaerobic condition, was measured by subjecting samples to vacuum analysis as described above followed addition of non-reducing sample buffer. […]

[2] = Antibody aggregation analysis (HP-SEC); details: EDTA 9.5, 19, 38 mM or Cystine 4 and 8 mM
Method: The percent of antibody aggregates was determined using standard size exclusion chromatography (HP-SEC) methods. An Agilent 1200 series system was used with a Tosoh Bioscience TSKgel G3000SW XL column (Tosoh Bioscience LLC, King of Prussia, Pa.) (7.8 mm×300 mm) at 1 mL/min flow rate using a mobile phase buffer of 0.1 M sodium phosphate, 0.1 M sodium sulfate, pH 6.8. The absorbance chromatography at 280 nm was used to quantify the results.

[3] = Free thiol quantitation in HCCF by disulfide mapping mass spectrometry; details: 2 mM cystine, 2 week hold, versus starting material
Method: The amount of free thiol in harvested cell culture fluid was determined by matching predicted masses of disulfide-linked peptides to observed masses from non-reducing Lys-C peptide mapping. Briefly, the sample was denatured and diluted prior to digestion with a serine protease. Following protease digestion, half of each reaction mixture was reduced by the addition of DTT. The digests were separated by RP-HPLC using a C18 column and analyzed using a UV-detector and an on-line mass spectrometer. Disulfide-bond linked peptides are only present in non-reducing runs and will disappear under reducing conditions.

[4] = Non-reduced GX (NR-GX) analysis of HCCF and purification products; details: 2 weeks at 2° C.-8° C., bags without headspace
Method: Samples were stored frozen until analyzed. Once thawed, 400-600 μL of each sample was transferred to culture tubes and mixed in non-reducing sample buffer containing N-Ethylmaleimide (NEM). After being denatured and the free thiols being capped by NEM, the samples were analyzed using a Perkin Elmer Labchip® GXII (Perkin Elmer, Waltham, Mass.) to perform size fractionation and quantification. Using the Labchip® GXII, the protein and fragments were detected by laser-induced fluorescence and translated into gel-like images (bands) and electropherograms (peaks).
The high levels of impurities were first detected in the capture product and were carried through the subsequent steps in the process.

N[C@@H](CSSC[C@H](N)C(=O)O)C(=O)O [cystine, L-cystine]
reduction potential at the time of harvest of sheared mAb E material [1]: no reduction potential
aggregation of sheared mAb E material after 8 days at 2-8° C. [2]: limited the extent of mAb aggregation
inter-chain free thiol in HCCF by the end of the hold [3]: higher level of inter-chain free thiol
reduction of mAb B in HCCF by the end of the hold (NR-GX) ([4]; 2 mM cystine): reduction had set in
reduction of mAb B in HCCF by the end of the hold (NR-GX) ([4]; 4 mM cystine): no signs of reduction
